Measurements taken from patent US10479789B2, “Pyrido[1,2-A]pyrimidone analog, crystal form thereof, intermediate thereof and preparation method therefor” (Chia Tai Tianqing Pharmaceutical Group Co., Ltd., priority 2015, dated 2019).

Key:
PI3Kγ = PI3Kγ (Homo sapiens, UniProt P48736); assay: ADP-Glo Assay II, PI3Kγ; type: biochemical; conditions: read-out: IC50 for inhibition of PI3Kγ activity
Description: (§1) 1) The compound was diluted using Echo from Labcyte company, 50 nL of the compound was transferred into an assay plate, and centrifuged at a speed of 1000 rpm for 10 sec.
(§2) 2) A kinase/lipid substrate mixed solution and a kinase reaction buffer/lipid substrate mixed solution were prepared; the kinase/lipid substrate mixed solution was added into columns 3-24 of the assay plate, 3 μL per well; the kinase reaction buffer/lipid substrate mixed solution was added into columns 1-2 of the assay plat, 3 μL per well; and the plate was centrifuged at a speed of 1000 rpm for 10 sec.
(§3) 3) An ATP solution was prepared, and added into the assay plate, 2 μL per well; the plate was centrifuged at a speed of 1000 rpm for 10 sec, shaken and mixed in 2nd gear mode on a plate shaker for 1 min, further centrifuged at a speed of 1000 rpm for 10 sec, and incubated for 120 min at 23° C. […]
(§4) 5) A kinase detection reagent was prepared, added into the assay plate, 10 μL per well; the plate was centrifuged at a speed of 1000 rpm for 10 sec, shaken and mixed in 2nd gear mode on a plate shaker for 1 min, further centrifuged at a speed of 1000 rpm for 10 sec, incubated for 30 min at 23° C.; and then read on the multi-marker detector Envision.

PI3K (p110α) = target: T1, PI3K (p110α) (Homo sapiens, UniProt P42336); assay: ADP-Glo Assay I, in vitro enzyme activity; type: biochemical; conditions: 0.33 nM PI3Kalpha
T1 construct: purchased Millipore 14-602-K
Description: The test compounds were diluted with a three-fold concentration gradient, and 10 concentrations (10000 nM to 0.5 nM) were obtained in total.
50 nL of the test compounds of the present invention was transferred to a reaction plate (PerkinElmer #6007299), and added with 3 μL of an enzyme/substrate mixture (0.33 nM PI3Kalpha, Millipore #14-602-K/166.5 μM PIP2); after incubation for 20 min, 2 μL of an ATP solution (100 μM) was added to initiate the reaction; after 2 hours of reaction at room temperature, the kinase reaction was stopped by adding 5 μL ADP-Glo reagent, followed by incubation at room temperature for 60 min, allowing the remaining unreacted ATP to be completely digested; and the resulting solution was added with 10 μL of a kinase detection reagent and incubated at room temperature for 40 min, and then the […] was read on Envision. PIP2, ATP, the ADP-Glo reagent, and the kinase assay reagents are all from an ADP-Glo Kinase Assay Kit (Promega #V1792).
IC50 was calculated using the standard 4-parameter fitting method (Model 205, XL-fit, iDBS).

PI3Kα = PI3Kα (Homo sapiens, UniProt P42336); assay: ADP-Glo Assay II, PI3Kα; type: biochemical; conditions: read-out: IC50 for inhibition of PI3Kα activity
Description: as §1, §2, §3, §4
IC50 results were analyzed by XLfit5 (Formula 205) of IDBS company.

[1] = system: human gastric cancer ST-02-0013; assay: In vivo pharmacodynamics, subcutaneous xenograft tumor model of human gastric cancer ST-02-0013; set-up: species or system BALB/c nude mice
Description: The studies were conducted to examine if the test drugs have in vivo efficacy in the human colon cancer CO-04-0032 animal model and the gastric cancer ST-02-0013 animal model. The descriptions about the animal feeding, feed ingredients, experimental observation, experimental indexes, experimental termination, as well as data analysis in the tests were as follows:
Animal Grouping: The animals were weighed and the tumor volume was measured prior to administration. The animals were randomly grouped according to tumor volume (randomized block design).
Experimental Indexes: The experimental indexes were used to examine whether tumor growth is inhibited, delayed or cured. Tumor diameter was measured twice a week with a vernier caliper. The tumor volume was calculated by the formula: V=0.5a×b^2, wherein a and b represent the long diameter and short diameter of a tumor, respectively. Tumor growth inhibition (TGI) of a compound was evaluated with T-C (day) and T/C (%). […]
Data Analysis: One-way ANOVA was used for comparison of three or more groups. […] All data was analyzed using SPSS 17.0. p<0.05 indicated a significant difference. […]

PI3Kγ, sequence (P48736 whole entry): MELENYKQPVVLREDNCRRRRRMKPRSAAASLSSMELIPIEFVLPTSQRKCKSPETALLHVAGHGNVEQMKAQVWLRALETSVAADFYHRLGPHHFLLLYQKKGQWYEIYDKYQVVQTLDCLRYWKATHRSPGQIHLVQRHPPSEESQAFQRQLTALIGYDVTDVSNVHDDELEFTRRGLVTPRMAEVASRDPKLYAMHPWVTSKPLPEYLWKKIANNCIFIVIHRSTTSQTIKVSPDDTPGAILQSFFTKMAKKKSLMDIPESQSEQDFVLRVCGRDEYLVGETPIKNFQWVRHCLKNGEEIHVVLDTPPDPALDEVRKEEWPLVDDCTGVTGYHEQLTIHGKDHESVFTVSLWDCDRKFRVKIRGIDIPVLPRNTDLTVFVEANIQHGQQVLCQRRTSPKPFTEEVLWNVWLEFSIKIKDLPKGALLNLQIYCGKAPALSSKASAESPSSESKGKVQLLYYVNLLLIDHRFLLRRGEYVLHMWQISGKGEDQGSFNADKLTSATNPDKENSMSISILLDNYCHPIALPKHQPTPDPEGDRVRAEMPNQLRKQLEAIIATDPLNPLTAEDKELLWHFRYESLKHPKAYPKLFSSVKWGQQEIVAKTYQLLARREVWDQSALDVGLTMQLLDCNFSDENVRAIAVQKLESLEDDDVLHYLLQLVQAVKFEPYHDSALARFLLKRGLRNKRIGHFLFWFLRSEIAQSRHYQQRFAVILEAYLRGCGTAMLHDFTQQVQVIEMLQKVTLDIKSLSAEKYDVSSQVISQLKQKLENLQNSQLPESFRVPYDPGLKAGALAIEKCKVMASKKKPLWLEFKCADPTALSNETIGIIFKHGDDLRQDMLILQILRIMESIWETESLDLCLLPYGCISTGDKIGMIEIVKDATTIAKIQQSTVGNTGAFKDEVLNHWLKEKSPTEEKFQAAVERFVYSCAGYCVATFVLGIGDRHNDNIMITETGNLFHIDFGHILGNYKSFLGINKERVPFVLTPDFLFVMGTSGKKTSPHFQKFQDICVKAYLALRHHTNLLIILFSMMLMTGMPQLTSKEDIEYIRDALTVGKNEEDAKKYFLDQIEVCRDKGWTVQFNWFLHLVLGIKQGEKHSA
T1 sequence (P42336 whole entry): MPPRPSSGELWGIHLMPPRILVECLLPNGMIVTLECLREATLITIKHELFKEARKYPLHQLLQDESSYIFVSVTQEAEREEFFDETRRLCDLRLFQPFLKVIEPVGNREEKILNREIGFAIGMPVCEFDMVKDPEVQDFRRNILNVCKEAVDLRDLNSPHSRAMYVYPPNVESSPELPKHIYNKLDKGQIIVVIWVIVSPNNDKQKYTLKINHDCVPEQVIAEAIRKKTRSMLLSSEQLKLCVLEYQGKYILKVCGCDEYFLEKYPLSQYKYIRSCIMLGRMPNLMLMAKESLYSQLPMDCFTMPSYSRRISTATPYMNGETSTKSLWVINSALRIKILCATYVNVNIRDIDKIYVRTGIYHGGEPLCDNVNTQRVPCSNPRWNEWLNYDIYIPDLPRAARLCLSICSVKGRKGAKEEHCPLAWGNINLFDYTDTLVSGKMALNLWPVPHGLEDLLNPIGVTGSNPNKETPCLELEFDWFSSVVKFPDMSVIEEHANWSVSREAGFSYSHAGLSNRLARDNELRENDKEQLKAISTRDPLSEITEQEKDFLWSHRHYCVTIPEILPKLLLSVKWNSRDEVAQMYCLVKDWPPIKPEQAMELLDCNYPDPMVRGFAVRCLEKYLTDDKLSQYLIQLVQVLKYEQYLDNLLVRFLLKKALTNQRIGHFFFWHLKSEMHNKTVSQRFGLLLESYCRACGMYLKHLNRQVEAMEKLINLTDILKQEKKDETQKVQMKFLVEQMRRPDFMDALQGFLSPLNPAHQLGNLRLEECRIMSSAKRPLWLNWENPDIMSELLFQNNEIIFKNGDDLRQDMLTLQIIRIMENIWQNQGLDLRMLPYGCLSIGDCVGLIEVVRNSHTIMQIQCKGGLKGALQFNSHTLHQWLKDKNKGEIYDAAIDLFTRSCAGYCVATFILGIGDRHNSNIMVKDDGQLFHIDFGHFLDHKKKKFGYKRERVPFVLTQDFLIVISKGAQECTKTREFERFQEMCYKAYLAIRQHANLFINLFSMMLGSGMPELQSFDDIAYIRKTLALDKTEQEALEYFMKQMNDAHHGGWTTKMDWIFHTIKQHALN
T1 sequence (P27986 whole entry partner): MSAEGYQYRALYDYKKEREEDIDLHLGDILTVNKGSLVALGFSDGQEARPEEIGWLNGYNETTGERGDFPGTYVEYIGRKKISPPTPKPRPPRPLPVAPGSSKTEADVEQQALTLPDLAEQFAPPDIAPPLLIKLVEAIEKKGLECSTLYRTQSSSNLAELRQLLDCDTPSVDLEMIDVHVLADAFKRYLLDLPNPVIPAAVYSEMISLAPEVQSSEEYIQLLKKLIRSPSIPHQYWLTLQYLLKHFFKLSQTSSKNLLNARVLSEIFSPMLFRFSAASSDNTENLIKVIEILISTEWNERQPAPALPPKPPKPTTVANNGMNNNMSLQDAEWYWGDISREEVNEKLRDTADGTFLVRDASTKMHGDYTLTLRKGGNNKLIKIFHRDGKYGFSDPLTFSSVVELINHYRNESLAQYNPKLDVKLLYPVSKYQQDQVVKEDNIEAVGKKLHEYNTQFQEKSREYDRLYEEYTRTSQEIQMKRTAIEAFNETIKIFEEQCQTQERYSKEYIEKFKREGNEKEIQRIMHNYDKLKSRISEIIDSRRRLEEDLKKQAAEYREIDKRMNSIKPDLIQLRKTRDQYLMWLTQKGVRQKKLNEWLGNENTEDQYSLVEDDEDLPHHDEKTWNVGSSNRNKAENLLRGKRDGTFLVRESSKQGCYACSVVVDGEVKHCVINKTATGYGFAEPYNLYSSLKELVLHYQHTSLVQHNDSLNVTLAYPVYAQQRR
PI3Kα, sequence (P42336 whole entry): as the sequence (P42336 whole entry) above
PI3Kα, sequence (P27986 whole entry partner): as the sequence (P27986 whole entry partner) above

- IC50 (PI3Kγ): 7 ± 0.9 nM
- IC50 (PI3K (p110α)): ≤ 1 nM
- IC50 (PI3Kα): 0.6 ± 0.2 nM
Compound: COc1ncc(-c2ccc3ncc(OCCN(C)C)c(=O)n3c2)cc1NS(=O)(=O)c1ccc(F)cc1Cl [Compound 1]
- increase in tumor volume ([1]; from day 15 to day 30 of the administration, ST-02-0013): almost no increase in tumor volume
- anti-tumor activity compared to the positive control drug BKM120 ([1]; gastric cancer ST-02-0013): more excellent anti-tumor activity
